Values of other authors, collected in the PKSmart pharmacokinetics tables (Seal et al. 2025).

Assay: Lombardo, Berellini, Obach 2018, Drug Metab Dispos 46:1466, doi 10.1124/dmd.118.082966
Details: human; for MRT / Vd / clearance / half-life: in vivo, iv; for fraction unbound: plasma

SMILES	MRT [h]	Vd [L/kg]	clearance [mL/min/kg]	half-life [h]	fraction unbound
Cc1ccc(S(=O)(=O)NC(=O)N[C@H]2[C@H]3CC[C@@](C)([C@H]2O)C3(C)C)cc1	13	0.27	0.34	9.2	
CC(C)(C)[N+](O)=Cc1ccc(S(=O)(=O)O)cc1S(=O)(=O)[O-]	2.2	0.18	1.35	3.6	0.6
CCCC[S@](=N)(=O)CCC(N)C(=O)O (some centres undefined)	1.9	0.26	2.28	1.68	
OC[C@@H](O)[C@@H](O)[C@H](O)[C@H](O)CO	3.5	0.24	1.2	4.7	
CN(C)[C@@H]1C(O)=C(C(N)=O)C(=O)[C@@]2(O)C(O)=C3C(=O)c4c(O)ccc(Cl)c4[C@@H](O)[C@H]3C[C@@H]12	17	1.3	1.1	12	0.59
C#C[C@]1(O)C=C[C@H]2[C@@H]3CC=C4CC(=O)CCC4[C@H]3CC[C@@]21CC (some centres undefined)	9.6	0.46	0.8	10	0.023
O=C1CN=C(c2ccccn2)c2cc(Br)ccc2N1	28	0.85	0.51	21	
Cc1cccc([C@H](C)c2c[nH]cn2)c1C	2.5	1.6	11	2.2	0.06
Cc1cc(NC(=O)C2C(=O)c3ccccc3S(=O)(=O)N2C)no1 (centres undefined)	44	0.19	0.07	33	
CC(C)NC[C@H](O)COc1ccc(O)cc1	3.23	4.28	22.1	2.85	
CO[C@@]1(NC(=O)C(C(=O)O)c2ccsc2)C(=O)N2C(C(=O)O)C(C)(C)S[C@@H]21 (some centres undefined)	5.2	0.11	0.34	4.1	0.21
O=C1c2c(c3c4ccc(O)cc4n([C@@H]4O[C@H](CO)[C@@H](O)[C@H](O)[C@H]4O)c3c3[nH]c4cc(O)ccc4c23)C(=O)N1NC(CO)CO	0.95	1.45	25.3	4.01	
COc1ccc(CCN(C)CCCN2CCc3cc(OC)c(OC)cc3CC2=O)cc1OC	3.2	1.6	8.4	2.8	
N#C[C@@H](O[C@@H]1O[C@H](CO[C@@H]2O[C@H](CO)[C@@H](O)[C@H](O)[C@H]2O)[C@@H](O)[C@H](O)[C@H]1O)c1ccccc1	1.83	0.21	1.88	1.23	
CC[C@H]1OC(=O)C(C)[C@@H](O[C@H]2C[C@@](C)(OC)[C@@H](O)[C@H](C)O2)[C@H](C)[C@@H](O[C@@H]2O[C@H](C)C[C@H](N(C)C)[C@H]2O)[C@](C)(OC)CC(C)C(=O)C(C)[C@@H](O)[C@]1(C)O (some centres undefined)	3.4	1.5	7.3	2.8	
CC(=O)NC[C@H]1CN(c2ccc(N3CCOCC3)c(F)c2)C(=O)O1	5.4	0.58	1.8	4.5	
COc1ccc2c(c1OC)C(=O)O[C@@H]2[C@H]1c2c(cc3c(c2OC)OCO3)CCN1C	2.28	2.3	16.9	2.13	
CC(C)(C)C1(O)CC2OC(=O)CC23C(=O)OC2OC(=O)C(O)C231 (centres undefined)	4	2.5	10	3.2	
COc1cc2c(N)nc(N3CCN(C(=O)OCC(C)(C)O)CC3)nc2c(OC)c1OC	3.1	0.18	0.96	3.1	
CC(C)=CCC[C@]1(C)C=Cc2c(O)c3c(c(CC=C(C)C)c2O1)O[C@]12C(=CC4C[C@@H]1C(C)(C)O[C@@]2(C/C=C(/C)C(=O)O)C4=O)C3=O	13.3	0.99	1.24	14.6	
CN/C(=C\[N+](=O)[O-])NCCSCc1csc(CN(C)C)n1	1.7	1	9.8	1.5	
O=c1[nH]cnc2c([C@@H]3N[C@H](CO)[C@@H](O)[C@H]3O)c[nH]c12			1.56	11.6	
CCCc1nc2c(C)cc(-c3nc4ccccc4n3C)cc2n1Cc1ccc(-c2ccccc2C(=O)O)cc1	11	5.3	8.4	20	
N[C@@H]1CN(c2c(F)cc3c(=O)c(C(=O)O)cn([C@@H]4C[C@@H]4F)c3c2Cl)CC12CC2	6.7	1.5	3.7	6.6	
